Test results: the supplement of paper PMC10307832

These cell lines were tested with CC(C)CCN1c2nc(Nc3cc(F)c(O)c(F)c3)ncc2N(C)C(=O)C1C [BI-D1870] + CS(=O)(=O)CCNCc1ccc(-c2ccc3ncnc(Nc4ccc(OCc5cccc(F)c5)c(Cl)c4)c3c2)o1 [Lapatinib] (partner 2 µM) (assay: relative viability (nuclei count vs DMSO), 5 days (fraction); higher = more cells survive). Conditions: first compound 0.04 µM.
Procedure, shortened: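 Medians of duplicate plates are given as relative viability. That measure is the nuclei count in treated wells divided by the count in vehicle wells. Counts were taken on 4× images of lung cancer cell lines in 1536-well plates, 5 days after pin-tool dosing the day after seeding with one drug alone or a fixed anchor-drug dose plus five library-drug doses (not always all listed) in √10 steps.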
BEN was tested, and the relative viability was 0.713.
HARA was tested, and the relative viability was 0.973.
HCC-78 gave a relative viability of 0.827.
NCI-H322M gave a relative viability of 0.605.
LCLC-97TM1 gave a relative viability of 1.35.
Cell Line NCI-H2009 has a relative viability of 1.01.
In the case of A-427, the relative viability is reported as 1.05.
With NCI-H661 the relative viability was 0.56.
NCI-H1734 was tested, and the relative viability was 1.27.
Work on NCI-H460 yielded a relative viability of 1.28.
NCI-H2347 gave a relative viability of 1.12.
Cell Line SK-LU-1 has a relative viability of 0.922.
201T showed a relative viability of 1.01.
Work on NCI-H1915 yielded a relative viability of 1.04.
Work on HCC-827 yielded a relative viability of 0.224.
LXF-289 showed a relative viability of 0.927.
In the case of NCI-H23, the relative viability is reported as 1.41.
Cell Line NCI-H647 has a relative viability of 1.26.
Cell Line CAL-12T has a relative viability of 0.799.
With NCI-H1651 the relative viability was 0.828.
With EPLC-272H the relative viability was 0.878.
In the case of NCI-H2228, the relative viability is reported as 1.2.
For NCI-H1792, the relative viability was 0.926.
NCI-H1355 showed a relative viability of 0.955.
For NCI-H3122, the relative viability was 1.02.
NCI-H1437 was tested, and the relative viability was 0.899.
Cell Line NCI-H1755 has a relative viability of 1.11.
Work on NCI-H2023 yielded a relative viability of 0.903.
Cell Line HCC-15 has a relative viability of 0.94.
For PC-14, the relative viability was 0.36.
Work on EKVX yielded a relative viability of 0.236.

Same assay, conditions: first compound 0.1265 µM
Cell Line LU99A has a relative viability of 0.942.
In the case of BEN, the relative viability is reported as 0.728.
With HARA the relative viability was 0.722.
HCC-78 showed a relative viability of 0.597.
For NCI-H322M, the relative viability was 0.535.
LCLC-97TM1 was tested, and the relative viability was 0.988.
NCI-H2009 showed a relative viability of 0.955.
A-427 showed a relative viability of 0.981.
NCI-H661 showed a relative viability of 0.406.
NCI-H1734 showed a relative viability of 1.07.
NCI-H460 gave a relative viability of 0.823.
Cell Line NCI-H2347 has a relative viability of 0.977.
In the case of SK-LU-1, the relative viability is reported as 0.894.
201T gave a relative viability of 0.97.
With NCI-H1915 the relative viability was 0.984.
Work on HCC-827 yielded a relative viability of 0.179.
For LXF-289, the relative viability was 0.831.
NCI-H23 was tested, and the relative viability was 0.984.
NCI-H647 showed a relative viability of 0.927.
For CAL-12T, the relative viability was 0.672.
NCI-H1651 was tested, and the relative viability was 0.666.
EPLC-272H was tested, and the relative viability was 0.879.
In the case of NCI-H2228, the relative viability is reported as 0.854.
NCI-H1792 was tested, and the relative viability was 0.953.
In the case of NCI-H1355, the relative viability is reported as 0.959.
With NCI-H3122 the relative viability was 0.985.
For NCI-H1437, the relative viability was 0.686.
In the case of NCI-H1755, the relative viability is reported as 0.982.
NCI-H2023 was tested, and the relative viability was 0.745.
For HCC-15, the relative viability was 0.832.
PC-14 gave a relative viability of 0.301.
Cell Line EKVX has a relative viability of 0.18.

Same assay, conditions: first compound 0.4 µM
Cell Line LU99A has a relative viability of 0.928.
Cell Line BEN has a relative viability of 0.784.
HARA gave a relative viability of 0.842.
HCC-78 was tested, and the relative viability was 0.715.
NCI-H322M gave a relative viability of 0.598.
LCLC-97TM1 was tested, and the relative viability was 0.622.
Work on NCI-H2009 yielded a relative viability of 0.885.
With A-427 the relative viability was 0.957.
For NCI-H661, the relative viability was 0.45.
With NCI-H1734 the relative viability was 0.975.
NCI-H460 showed a relative viability of 0.941.
Work on NCI-H2347 yielded a relative viability of 0.745.
For SK-LU-1, the relative viability was 0.791.
201T was tested, and the relative viability was 1.05.
NCI-H1915 showed a relative viability of 0.969.
Work on HCC-827 yielded a relative viability of 0.194.
Cell Line LXF-289 has a relative viability of 0.881.
With NCI-H23 the relative viability was 1.04.
NCI-H647 showed a relative viability of 1.02.
With CAL-12T the relative viability was 0.664.
NCI-H1651 gave a relative viability of 0.769.
For EPLC-272H, the relative viability was 0.734.
Work on NCI-H2228 yielded a relative viability of 0.989.
For NCI-H1792, the relative viability was 0.881.
In the case of NCI-H1355, the relative viability is reported as 0.907.
Work on NCI-H3122 yielded a relative viability of 0.983.
In the case of NCI-H1437, the relative viability is reported as 0.76.
With NCI-H1755 the relative viability was 1.08.
With NCI-H2023 the relative viability was 0.886.
HCC-15 gave a relative viability of 0.774.
PC-14 gave a relative viability of 0.343.
Cell Line EKVX has a relative viability of 0.195.

Same assay, conditions: first compound 1.265 µM
LU99A showed a relative viability of 0.941.
BEN gave a relative viability of 0.749.
For HARA, the relative viability was 0.998.
For HCC-78, the relative viability was 1.13.
NCI-H322M was tested, and the relative viability was 0.529.
LCLC-97TM1 showed a relative viability of 1.3.
In the case of NCI-H2009, the relative viability is reported as 0.741.
With A-427 the relative viability was 1.21.
In the case of NCI-H661, the relative viability is reported as 0.442.
Cell Line NCI-H1734 has a relative viability of 1.01.
NCI-H460 showed a relative viability of 0.837.
Cell Line NCI-H2347 has a relative viability of 0.921.
In the case of SK-LU-1, the relative viability is reported as 0.793.
In the case of 201T, the relative viability is reported as 1.02.
Work on NCI-H1915 yielded a relative viability of 1.04.
In the case of HCC-827, the relative viability is reported as 0.172.
LXF-289 showed a relative viability of 0.87.
NCI-H23 was tested, and the relative viability was 1.31.
For NCI-H647, the relative viability was 1.03.
CAL-12T showed a relative viability of 1.03.
NCI-H1651 showed a relative viability of 0.892.
For EPLC-272H, the relative viability was 1.01.
In the case of NCI-H2228, the relative viability is reported as 0.927.
Cell Line NCI-H1792 has a relative viability of 0.967.
For NCI-H1355, the relative viability was 1.21.
Work on NCI-H3122 yielded a relative viability of 1.01.
NCI-H1437 gave a relative viability of 0.802.
NCI-H1755 showed a relative viability of 1.16.
For NCI-H2023, the relative viability was 0.764.
Work on HCC-15 yielded a relative viability of 0.795.
PC-14 gave a relative viability of 0.395.
EKVX gave a relative viability of 0.223.

Same assay, conditions: first compound 4 µM
For LU99A, the relative viability was 0.939.
With BEN the relative viability was 0.621.
HARA gave a relative viability of 0.74.
HCC-78 was tested, and the relative viability was 0.856.
NCI-H322M was tested, and the relative viability was 0.559.
For LCLC-97TM1, the relative viability was 0.916.
In the case of NCI-H2009, the relative viability is reported as 0.478.
With A-427 the relative viability was 1.09.
NCI-H661 gave a relative viability of 0.499.
In the case of NCI-H1734, the relative viability is reported as 0.72.
NCI-H460 showed a relative viability of 0.586.
NCI-H2347 gave a relative viability of 1.03.
SK-LU-1 showed a relative viability of 0.462.
Work on 201T yielded a relative viability of 1.03.
NCI-H1915 was tested, and the relative viability was 0.834.
Work on HCC-827 yielded a relative viability of 0.231.
LXF-289 gave a relative viability of 0.788.
Work on NCI-H23 yielded a relative viability of 0.664.
NCI-H647 was tested, and the relative viability was 0.671.
Cell Line CAL-12T has a relative viability of 0.539.
Cell Line NCI-H1651 has a relative viability of 0.647.
Work on EPLC-272H yielded a relative viability of 0.852.
In the case of NCI-H2228, the relative viability is reported as 0.482.
NCI-H1792 was tested, and the relative viability was 0.794.
In the case of NCI-H1355, the relative viability is reported as 0.809.
NCI-H3122 gave a relative viability of 0.967.
With NCI-H1437 the relative viability was 0.653.
NCI-H1755 was tested, and the relative viability was 0.992.
Work on NCI-H2023 yielded a relative viability of 0.59.
In the case of HCC-15, the relative viability is reported as 0.592.
In the case of PC-14, the relative viability is reported as 0.269.
EKVX showed a relative viability of 0.2.
